SMILES strings stand for the structures. “And” between values parts separate entries of the source, which are not always exact repeats. Identical values can stand only once.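 Cells were grown in 96-well plates and exposed to each compound for 48 hours at five concentrations; endpoints were interpolated linearly between bracketing concentrations, or set to the highest concentration if not reached. Here, GI50 denotes the concentration required for 50% inhibition of growth. TGI denotes the concentration required for complete inhibition of growth.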

Test systems include HL-60(TB) leukemia; PC-3 prostate; HCT-116 colon; HOP-62 NSCLC; 786-0 renal; UACC-62 melanoma; SK-MEL-28 melanoma; SK-MEL-2 melanoma; EKVX NSCLC; A498 renal.
Common to all, as to experiment: NCI-60 cell line screen, 48 h

Consider `Cc1c2c(nn1C)CSCc1cc(n(C)n1)CSc1cc(c3ccccc3c1)OCCCc1c(C(=O)O)n(C)c3c-2c(Cl)ccc13`, for which the GI50 was 0.0427 µM in the test with HL-60(TB) leukemia; 3.42 µM in the test with PC-3 prostate; 3.53 µM in the test on HCT-116 colon; 4.62 µM in the test with HOP-62 NSCLC; 4.4 µM in the test with 786-0 renal; 0.456 µM in the test on UACC-62 melanoma. Moreover, the GI50 is 3.61 µM in the test on SK-MEL-28 melanoma, 0.165 µM in the test on SK-MEL-2 melanoma, 3.86 µM in the test on EKVX NSCLC and 4.01 µM in the test with A498 renal. The TGI in the test on HL-60(TB) leukemia was 0.294 µM; in the test with PC-3 prostate, 13.2 µM; with HCT-116 colon, 13 µM; with HOP-62 NSCLC it was 17.3 µM; in the test with 786-0 renal it was 17.8 µM; in the test with UACC-62 melanoma, 2.35 µM. In addition, the TGI stood at 12.9 µM with SK-MEL-28 melanoma, 0.429 µM in the test on SK-MEL-2 melanoma, 15.7 µM in the test with EKVX NSCLC and 19 µM in the test on A498 renal.

In the case of `COc1ccc(OC)c(-c2c(C#N)c(N)nc(N3CCOCC3)c2C#N)c1`, the GI50 is more than 100 µM in the test on HL-60(TB) leukemia; 95.4 µM in the test on PC-3 prostate; more than 100 µM in the test with HCT-116 colon; 65.3 µM in the test with HOP-62 NSCLC; more than 100 µM in the test with 786-0 renal; 44.5 µM in the test on UACC-62 melanoma. Moreover, the GI50 in the test on SK-MEL-28 melanoma was 82.8 µM; in the test on SK-MEL-2 melanoma it was more than 100 µM; with EKVX NSCLC, more than 100 µM; with A498 renal, 52.6 µM. Also, the TGI with HL-60(TB) leukemia, in the test on PC-3 prostate, in the test on HCT-116 colon, in the test on HOP-62 NSCLC, with 786-0 renal and with UACC-62 melanoma was more than 100 µM each time. For the same compound, the TGI with SK-MEL-28 melanoma, in the test on SK-MEL-2 melanoma, with EKVX NSCLC and in the test with A498 renal was more than 100 µM throughout.

`O=C1c2c(O)cccc2C(C2OC(CO)C(O)C(O)C2O)c2cc(CO)cc(O)c21` (configuration not stated): the TGI in the test on HL-60(TB) leukemia, in the test on PC-3 prostate, in the test on HCT-116 colon, in the test with HOP-62 NSCLC, with 786-0 renal and with UACC-62 melanoma was more than 100 µM in each case. Further, the TGI in the test on SK-MEL-28 melanoma, with SK-MEL-2 melanoma, with EKVX NSCLC and in the test on A498 renal was more than 100 µM throughout.

`CCOc1cc2ncc(C#N)c(Nc3ccc(OCc4ccccn4)c(Cl)c3)c2cc1NC(=O)/C=C/CN(C)C`: the GI50 in the test on HL-60(TB) leukemia is 0.855 µM and 0.822 µM; with PC-3 prostate, 1.93 µM and 1.31 µM; with HCT-116 colon, 0.568 µM and 0.615 µM; with HOP-62 NSCLC it was 1.22 µM and 1.51 µM; with 786-0 renal, 0.755 µM; with UACC-62 melanoma, 1.28 µM and 0.842 µM. Also, the GI50 is 1.41 µM and 2.36 µM in the test on SK-MEL-28 melanoma; 0.291 µM and 0.377 µM in the test with SK-MEL-2 melanoma; 0.0183 µM and 0.0189 µM with EKVX NSCLC; 0.124 µM and 0.153 µM in the test with A498 renal. The TGI in the test on HL-60(TB) leukemia is 12.9 µM and 2.73 µM; in the test with PC-3 prostate, 8.36 µM and > 9.32 µM; in the test on HCT-116 colon it was 2.08 µM and 2.05 µM; with HOP-62 NSCLC, 4.44 µM and > 7.81 µM; in the test on 786-0 renal, 2.81 µM; in the test on UACC-62 melanoma it was 3.87 µM and > 10 µM. The TGI in the test on SK-MEL-28 melanoma is 2.96 µM and > 10 µM; with SK-MEL-2 melanoma, 2.51 µM and > 4.63 µM; in the test with EKVX NSCLC it was 25.6 µM and > 6.84 µM.

For `O=C(COc1ccc(/C=C2\Oc3ccccc3C2=O)cc1)Nc1nc2c(s1)CCCC2`, the GI50 was 0.424 µM in the test with HL-60(TB) leukemia; 16.8 µM with PC-3 prostate; 9.94 µM in the test with HCT-116 colon; 22.5 µM in the test with HOP-62 NSCLC; 0.818 µM with 786-0 renal; 23.2 µM in the test on UACC-62 melanoma. The GI50 was 27.8 µM in the test on SK-MEL-28 melanoma, 4.87 µM with SK-MEL-2 melanoma, 10.7 µM with EKVX NSCLC and 30.6 µM with A498 renal. Also, the TGI in the test with HL-60(TB) leukemia was 1.31 µM; with PC-3 prostate, more than 100 µM; with HCT-116 colon, more than 100 µM; in the test with HOP-62 NSCLC, 97.9 µM; in the test on 786-0 renal, 31.7 µM; with UACC-62 melanoma, more than 100 µM. The TGI in the test with SK-MEL-28 melanoma is more than 68.7 µM; in the test on SK-MEL-2 melanoma, 50.2 µM; in the test with EKVX NSCLC, more than 100 µM; with A498 renal, 98.2 µM.

As for `CC[N+]1(C)CCC(O)(c2ccc(Cl)c(Cl)c2)C(C(=O)c2ccc(Cl)c(Cl)c2)C1` (configuration not stated), the TGI in the test on HL-60(TB) leukemia, in the test with PC-3 prostate, with HCT-116 colon, with HOP-62 NSCLC, in the test with 786-0 renal and in the test on SK-MEL-28 melanoma was more than 10 µM throughout. Moreover, the TGI in the test with SK-MEL-2 melanoma, with EKVX NSCLC and with A498 renal was more than 10 µM in each case.

`O=C(NC[C@H](O)CO)c1ccncc1Nc1ccc(I)cc1F`: the GI50 in the test on HL-60(TB) leukemia is 0.00228 µM and < 0.01 µM; in the test with PC-3 prostate it was > 10 µM and 61 µM; with HCT-116 colon it was 0.0556 µM and 0.104 µM; in the test on HOP-62 NSCLC, 0.0472 µM and 0.298 µM; with 786-0 renal, > 10 µM and 6.21 µM; in the test with UACC-62 melanoma, 0.00248 µM and < 0.01 µM. For the same compound, the GI50 was 0.00334 µM and < 0.0104 µM with SK-MEL-28 melanoma; 0.00484 µM and < 0.01 µM with SK-MEL-2 melanoma; 0.194 µM and 0.313 µM in the test on EKVX NSCLC; 0.03 µM and 0.0394 µM with A498 renal. The TGI was more than 54.2 µM in the test with HL-60(TB) leukemia; more than 100 µM with PC-3 prostate; more than 100 µM in the test on HCT-116 colon; more than 94 µM with HOP-62 NSCLC; more than 100 µM with 786-0 renal; 0.0292 µM with UACC-62 melanoma. The TGI in the test with SK-MEL-2 melanoma was 0.0923 µM and 0.0599 µM; in the test on EKVX NSCLC it was more than 100 µM; with A498 renal, 0.417 µM and 0.517 µM.

Regarding `O=C(/C=C/c1ccc([N+](=O)[O-])cc1)c1ccc2c3c(cccc13)CC2`, the GI50 was 4.51 µM in the test on HL-60(TB) leukemia; 4.72 µM in the test with PC-3 prostate; 4.33 µM in the test on HCT-116 colon; 11.4 µM in the test on HOP-62 NSCLC; 10.2 µM in the test with 786-0 renal; more than 48.4 µM with UACC-62 melanoma. Besides, the GI50 in the test with SK-MEL-28 melanoma was 18.2 µM; with SK-MEL-2 melanoma, more than 100 µM; in the test on EKVX NSCLC, 62.9 µM; with A498 renal, 11.6 µM. In addition, the TGI with HL-60(TB) leukemia was 29 µM; with PC-3 prostate, more than 100 µM; in the test with HCT-116 colon, 25.7 µM; in the test with HOP-62 NSCLC, more than 81.9 µM; with 786-0 renal, more than 88.9 µM; with UACC-62 melanoma it was more than 100 µM. Besides, the TGI is 58.9 µM with SK-MEL-28 melanoma, more than 100 µM with SK-MEL-2 melanoma, more than 100 µM with EKVX NSCLC and 43.5 µM in the test on A498 renal.

The values are drawn from PubChem BioAssay (NCI).
